According to US7851449B2, “Peptide, pharmaceutical composition, and a method of treating microcirculation disorders” (Obschestvo S Ogranichennoi Otvetstvennostyu “SIA Peptides”, priority 2006, dated 2010):
Marks after values point to notes of the source that are not given here. Peptide text beside a SMILES is read from it.

Key:
[1] = system: patients with purpura senilis; assay: Hemostasis indices and Hess test in patients with purpura senilis; type: in vivo
Protocol: The study was conducted on 23 patients aged 70-82, suffering from purpura senilis, who complained of frequent spontaneous hemorrhages on the face, neck, forearms and hands. The patients reported progressive development of the disease.
The patients were randomly divided into two groups. The main group consisted of 12 patients, who were injected with pharmaceutical composition, containing peptide H-Lys-Glu-Asp-OH as its active base, in the dose of 100 μg in 1.0 ml of physiological solution daily intramuscularly for 10 days. Control group consisted of 11 patients, injected with sterile physiological solution following the same scheme.
Complains of the patients were analyzed in dynamics, also there were conducted general blood and urine tests, blood biochemical test. In order to study hemostasis there were made blood coagulogramm and Hess test with a tourniquet.

vascular wall explants = assay: Development of vascular wall explants (area index); type: cell-based, Wistar rats
Protocol: The experiments were conducted on 32 fragments of vascular wall from the peripheral artery of Wistar rats with body weight of 150-200 g. Nutritional medium for explants cultivation consisted of 35% Eagle's solution, 25% calf fetal serum, 35% Hanx solution, 5% chicken embryonic extract, with the addition of glucose (0.6%), insulin (0,5 units/ml), penicillin (100 units/ml), glutamine (2 mM). […] Peptide H-Lys-Glu-Asp-OH was added into the medium, in the concentration of 1, 10, 100 and 200 ng/ml.
Area index (AI), i.e. the ratio of total explant area together with the growth zone to the initial area of vascular wall fragment served as the criterion of biologic activity. AI values were expressed in percent, control AI values being considered as 100%.

[2] = system: skin capillaries of patients with hypovitaminosis; assay: Skin capillary resistance in patients with hypovitaminosis (Rumpel-Leede-Konchalovskiy cuff test); type: in vivo
Protocol: The study was conducted on 25 patients aged 19-35, reporting signs of hypovitaminosis in spring. The patients were randomly divided into 2 groups.
The patients of the main group were divided into three sub-groups depending on the hypovitaminosis severity. Patients suffering from the severe hypovitaminosis were subjected to a daily single intramuscular injection of pharmaceutical composition containing H-Lys-Glu-Asp-OH peptide as its active base, in the dose of 5.0 mg in 1.0 ml of sterile 0.9% NaCl solution for 10 days; patients with moderately sever hypovitaminosis—in the dose of 100.0 μg, and patients with mild signs of hypovitaminosis—in the dose of 1.0 μg.
Control group consisted of 18 patients, subjected to an injection of physiological solution following the same scheme. Both groups received only balanced vitamin containing diet.
The estimation of the H-Lys-Glu-Asp-OH peptide effect on resistance of skin capillaries was conducted by means of Rumpel-Leede-Konchalovskiy capillary fragility test. A blood-pressure cuff was applied to the upper part of the arm of the patients. Then there was maintained pressure up to 200 mmHg for 3 minutes. Skin capillary resistance was evaluated on the area of the dosed load on skin capillaries (under the cuff). Hemorrhages were counted with a help of the magnifying glass.
Skin capillary resistance was graded according to the five-point scale: […]

male guinea pigs [3] = assay: Chronic toxicity, 6 months daily intramuscular administration; peripheric blood morphology and biochemical indices; conditions: long-term administration
Protocol: (§1) The studies of chronic toxicity were conducted for 6 months, basing on the term of recommended clinical administration of the substance, on 96 male guinea pigs with body weight of 300-340 g. Experimental animals received the peptide daily, once a day, intramuscularly, for 6 months in the doses of 1 μg/kg, 0.1 mg/kg, 1 mg/kg in 0.5 ml of sterile 0.9% NaCl solution. Control animals received sterile 0.9% NaCl solution in the same volume and by the same schedule. Traditional methods were used for the evaluation of the following indices of the animals' peripheric blood: the quantity of erythrocytes, hemoglobin, reticulocytes, thrombocytes, leukocytes, leukocyte formula, erythrocyte sedimentation rate (ESR), erythrocyte resistance. Alongside with that, the content of total protein in the serum was identified using Lowry's method, as well as potassium and sodium content using the method of plasma spectrophotometry. Upon the completion of the experiment pathomorphologic studies of animal brain and spinal cord, spinal cord ganglia, thyroid gland, parathyroid glands, adrenal glands, testis, pituitary body, heart, lungs, aorta, liver, kidneys, urinary bladder, pancreas, stomach, small intestine, large intestine, thymus, spleen, lymph nodes and bone marrow were performed.

[4] = system: rats with experimental parodontitis; assay: Microcirculation in rats with experimental parodontitis (gingiva biomicroscopy, laser dopplerography); type: in vivo; parameters: capillaries density per area unit: unit not given here; conditions: for diameter of the capillaries: in µm
Protocol: The experiments were conducted on 45 white mongrel male and female rats with body weight of 180-200 g. The model of light parodontitis was induced by the method of differentiated feeding of rats with standard granulated PK-120 forage for 1.5 months.
The animals were divided into 3 groups 15 rats in each: the animals of the first group, suffering from parodontitis didn't receive any treatment, rats in the second group suffering from experimental parodontitis were injected with 0.1 ml of sterile 0.9% NaCl solution into the mucous of the gingiva transitional fold (control); the animals of the third group with experimental parodontitis were subjected to a daily single injection of H-Lys-Glu-Asp-OH peptide in the dose of 2 μg in the 0.1 ml of sterile 0,9% NaCl solution into the mucous gingiva transitional fold with simultaneous rubbing in of peptide solution for 10 days.
During all experiments there was conducted a biomicroscopy of mucous membrane of the rats gingiva under nembutal anaesthesia with usage of contact object lenses and estimated the blood flow rate in capillaries by means of laser capillary blood flow analyzer LAKK-01. The studies were conducted in 3 areas of the gingiva, in the free gingiva, attached gingiva and transitional fold in case of 100 magnification. Clinical signs of the parodontitis were evaluated visually.

male guinea pigs [5] = conditions: in vivo
Protocol: as §1

white mongrel male rats = assay: Sub-acute toxicity, 90 days daily intramuscular administration; type: in vivo; conditions: daily i.m. 90 days, doses exceeding the therapeutic one by 100-1000 times
Protocol: The study of sub-acute toxicity was performed on 60 white mongrel male rats with body weight of 160-240 g. […] Morphology and properties of the animals' peripheral blood were studied before the administration of the substance, as well as on the 30th, 60th and 90th day after the beginning of the administration. Upon completion of the experiment biochemical and coagulologic indices of the blood were also evaluated.

NCCCCC(N)C(=O)NC(CCC(=O)O)C(=O)NC(CC(=O)O)C(=O)O (stereo not drawn) [H-Lys-Glu-Asp-OH, lysyl-glutamyl-asparagine acid] (H-Lys-Glu-Asp-OH; configuration not given here)
Ethanol test ([1]; 100 μg daily i.m. 10 days, healthy 0, control 43.8): 14.3** % of the positive cases
Fibrinogen ([1]; 100 μg daily i.m. 10 days, healthy 3.2 ± 0.4, control 2.9 ± 0.1): 2.5 ± 0.1 g/L
Prothrombin time ([1]; 100 μg daily i.m. 10 days, healthy 12.5 ± 0.1, control 12.4 ± 0.4): 13.3 ± 0.1 s
Thrombin time ([1]; 100 μg daily i.m. 10 days, healthy 18.2 ± 0.6, control 16.0 ± 0.2): 17.1 ± 0.2 c
Activated partial thromboplastin time ([1]; 100 μg daily i.m. 10 days, healthy 32.3 ± 2.1, control 48.0 ± 1.3): 58.9 ± 0.7 s
Euglobulin fibrinolysis ([1]; 100 μg daily i.m. 10 days, healthy 150.0 ± 6.8, control 163.5 ± 5.0): 156.2 ± 3.9 min
Time of recalcification ([1]; 100 μg daily i.m. 10 days, healthy 178.0 ± 14.0, control 147.3 ± 4.2): 164.2 ± 2.4
Hess test (vascular walls durability) ([1]; after administration of the pharmaceutical composition): reduction in the number of hemorrhages
Area index (AI) growth as compared to the control AI (vascular wall explants; 100 ng/ml, 3rd day of cultivation, statistically significant): 24%
effect on vascular wall explants after longer cultivation (vascular wall explants; 7 days of cultivating, same concentrations): same stimulating effect
Cuff test indices ([2]; After administration, daily i.m. 1.0 μg, 100.0 μg or 5.0 mg by severity, 10 days, P < 0.05 vs before): II* (from 6 to 15)
Cuff test indices ([2]; Before administration (baseline of the peptide group)): III-IV
number of skin hemorrhages ([2]; before treatment, patients of both groups): 30-47
number of skin hemorrhages ([2]; main group after the treatment, control group unchanged): 6-8
pathologic alterations (general status, blood indices, organ morphology, cardiovascular, respiratory, liver and kidney functions) (male guinea pigs [3]): no pathologic alterations
biomicroscopy of gingival mucous membrane ([4]; attached gingiva and transitional fold, 2 μg daily for 10 days): complete correction of the microcirculation
index of microcirculation (IM) ([4]; attached gingiva, 2 μg daily for 10 days, NaCl control 0.63±0.04): 0.22±0.05
diameter of the capillaries ([4]; attached gingiva, 2 μg daily for 10 days, NaCl control 9.8±0.35): 7.8±0.20
blood flow rate (laser dopplerography) ([4]; attached gingiva, 2 μg daily for 10 days, NaCl control 17±0.7): 20±1.1 conv. units
capillaries density per area unit ([4]; average of gingiva parts, 2 μg daily for 10 days, norm 29.3±2.3, NaCl control 30±1.5): 34±2.7
diameter of the capillaries ([4]; free gingiva, 2 μg daily for 10 days, NaCl control 12.3±0.36 (μm printed only)): 8.2±0.1
blood flow rate (laser dopplerography) ([4]; free gingiva, 2 μg daily for 10 days, norm 18±1.3, NaCl control 15±1.5): 20±0.9 conv. units
index of microcirculation (IM) ([4]; free gingiva, 2 μg daily into gingiva for 10 days, normal 0.21±0.30, NaCl control 0.75±0.03): 0.29±0.15
index of microcirculation (IM) ([4]; transitional fold, 2 μg daily for 10 days, NaCl control 0.39±0.02): 0.20±0.18
diameter of the capillaries ([4]; transitional fold, 2 μg daily for 10 days, NaCl control 9.1±0.09): 6.57±0.1
blood flow rate (laser dopplerography) ([4]; transitional fold, 2 μg daily for 10 days, NaCl control 19±1.2): 19±2.3 conv. units
side effects in long-term administration (chronic toxicity) (male guinea pigs [5]; guinea pig): absence of any side effects
changes in guinea pig blood morphology and biochemical indices (male guinea pigs [5]): no statistically significant changes
side effects in long-term administration (subacute toxicity) (white mongrel male rats): absence of any side effects
